What was measured:
Type in all cases: cell-based
[1] = system: melanin-producing enzymes (TRP1, TRP2) in normal human melanocytes; experiment: Increase in protein expression of melanin-producing enzymes (TRP1, TRP2) by C. acnes; conditions: 10^7 CFU/ml live C. acnes, 1 nM to 100 nM, 2 days, FIGS. 11 and 12
Experimental: Cutibacterium acnes (C. acnes, ATCC 6919) are inoculated in a BHI medium and cultured at 37° C. under anaerobic conditions for 72 hours to 96 hours, and then, the medium is collected. The collected medium is centrifuged (4° C., 10 minutes at 5,000×g), precipitating the bacteria. The precipitated bacteria are twice washed with phosphate-buffered saline (PBS) and treated up to a final concentration of 10^10 CFU/ml, preparing a live C. acnes stock, and the live C. acnes stock is cryopreserved at −80° C. Normal human melanocytes are placed on 6-well plates, and the next day, the medium is changed to a PMA-free melanocyte medium. Herein, 10^4, 10^5, 10^6, and 10^7 CFU/ml of live C. acnes are treated. After culturing for 2 days, the cells broken by using a lysis buffer in each well to separate proteins. The separated proteins are measured with respect to relative protein expression levels by using a specific antibody for TRP1 (tyrosinase related protein 1) and TRP2 (tyrosinase related protein 2), which are melanin-producing enzymes.
Normal human melanocytes are placed on 6-well plates, and the next day, the medium is changed to a PMA-free melanocyte medium. […] The separated proteins are measured with respect to relative protein expression levels by using a specific antibody for TRP1 (tyrosinase related protein 1) and TRP2 (tyrosinase related protein 2), which are melanin-producing enzymes.

[2] = system: melanin-producing enzymes (tyrosinase, TRP2) in normal human melanocytes; experiment: Protein expression of melanin-producing enzymes (tyrosinase, TRP2) in normal human melanocytes without inducer; conditions: no inducer, 0.001-100 nM, 4 days
Experimental: (§1) Normal human melanocytes are placed on a 6-well plate, and the next day, the medium is changed to a melanocyte-free melanocyte medium. At this time, they are treated with each composition including the compound represented by Chemical Formula 1-1 (Cayman chemical) in an amount of 0 nM, 0.001 nM, 0.01 nM, 0.1 nM, 1 nM, 10 nM, and 100 nM, respectively (based on the total amount of the composition). After culturing for 4 days, the cells are broken using a lysis buffer in each well and then the proteins are separated. Subsequently, the separated proteins are measured with respect to relative protein expression levels by using a specific antibody for tyrosinase which is a melanin-producing enzyme from, TRP2 (tyrosinase related protein 2).

[3] = system: melanin-producing enzyme (tyrosinase, TRP2) in normal human melanocytes; experiment: Increase in protein expression of melanin-producing enzyme (tyrosinase, TRP2) by pigmentation inducer (IBMX); conditions: 100 μM IBMX, 0.001-100 nM, 4 days, FIGS. 7 to 9
Experimental: as §1, with “PMA-free” for “melanocyte-free”, “composition) along with 100 μM pigmentation inducer (IBMX).” for “composition).”, “TRP2 (tyrosinase related protein 2),” for “tyrosinase”, “enzyme.” for “enzyme from, TRP2 (tyrosinase related protein 2).”

[4] = system: melanin-producing enzyme (tyrosinase, TRP2) in normal human melanocytes; experiment: Increase in protein expression of melanin-producing enzyme (tyrosinase, TRP2) by pigmentation inducer (α-MSH); conditions: 500 nM α-MSH, 0.001-100 nM, 4 days, FIGS. 4 to 6
Experimental: as §1, with “PMA-free” for “melanocyte-free”, “composition) along with 500 nM pigmentation inducer (α-MSH).” for “composition).”, “TRP2 (tyrosinase related protein 2),” for “tyrosinase”, “enzyme.” for “enzyme from, TRP2 (tyrosinase related protein 2).”

increase in protein expression of the melanin-producing enzyme (TRP1, TRP2) by C. acnes [1]: effectively inhibited | increase in the protein expression of the melanin-producing enzyme (tyrosinase, TRP2) ([2]; antibody detection vs GAPDH, FIGS. 1 to 3): effectively inhibited | increase in protein expression of the melanin-producing enzyme (tyrosinase, TRP2) by IBMX [3]: effectively inhibited | increase in protein expression of the melanin-producing enzyme (tyrosinase, TRP2) by α-MSH [4]: effectively inhibited
SMILES: CC/C=C\C[C@H](O)/C=C/C=C\C/C=C\C=C\[C@@H](O)C/C=C\CCC(=O)O [Chemical Formula 1-1]
increase in protein expression of the tyrosinase ([2]; concentration dependence): effectively inhibited depending on a concentration
